{
  "source": "patent US9533965B2",
  "about": "“2-arylbenzofuran-7-formamide compounds, preparation method and use thereof” (SHANGHAI INSTITUTE OF MATERIA MEDICA, CHINESE ACADEMY OF …, priority 2012, dated 2017)",
  "key": {"[1]": {"test_system": "Chinese hamster lung fibroblast cell line VC8 (BRCA2−/−)", "assay": "In vitro cell proliferation inhibition (MTT), VC8 cells", "format": "cell-based", "conditions": "Cricetulus griseus, V-C8, 72 h, MTT, 72 h, VC8 (BRCA2−/−); read-out: VC8 cell IC50"}, "PARP2": {"molecular_target": "PARP2 (Homo sapiens, UniProt Q9UGN5)", "sequence (Q9UGN5 whole entry)": "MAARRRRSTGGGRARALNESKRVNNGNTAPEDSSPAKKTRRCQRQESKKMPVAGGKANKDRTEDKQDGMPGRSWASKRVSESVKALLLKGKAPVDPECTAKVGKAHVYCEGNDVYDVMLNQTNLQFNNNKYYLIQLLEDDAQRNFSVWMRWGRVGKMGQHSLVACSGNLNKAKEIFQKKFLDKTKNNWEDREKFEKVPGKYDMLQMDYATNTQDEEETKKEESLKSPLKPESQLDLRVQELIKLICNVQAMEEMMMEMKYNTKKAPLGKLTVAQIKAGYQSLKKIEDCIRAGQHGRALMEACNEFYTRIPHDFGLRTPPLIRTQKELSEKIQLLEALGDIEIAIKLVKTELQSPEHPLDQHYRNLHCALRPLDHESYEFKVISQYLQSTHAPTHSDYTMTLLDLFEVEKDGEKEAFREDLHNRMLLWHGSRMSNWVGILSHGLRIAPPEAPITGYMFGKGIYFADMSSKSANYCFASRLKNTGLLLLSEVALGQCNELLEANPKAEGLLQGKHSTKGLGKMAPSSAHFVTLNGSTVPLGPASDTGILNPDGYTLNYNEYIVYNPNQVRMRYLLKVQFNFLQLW", "assay": "Enzymatic inhibition on the PARP family members (ELISA), PARP2", "format": "biochemical", "conditions": "PARP family panel"}, "TNKS2": {"molecular_target": "T1, TNKS2 (Homo sapiens, UniProt Q9H2K2)", "T1 sequence (Q9H2K2 1-1166)": "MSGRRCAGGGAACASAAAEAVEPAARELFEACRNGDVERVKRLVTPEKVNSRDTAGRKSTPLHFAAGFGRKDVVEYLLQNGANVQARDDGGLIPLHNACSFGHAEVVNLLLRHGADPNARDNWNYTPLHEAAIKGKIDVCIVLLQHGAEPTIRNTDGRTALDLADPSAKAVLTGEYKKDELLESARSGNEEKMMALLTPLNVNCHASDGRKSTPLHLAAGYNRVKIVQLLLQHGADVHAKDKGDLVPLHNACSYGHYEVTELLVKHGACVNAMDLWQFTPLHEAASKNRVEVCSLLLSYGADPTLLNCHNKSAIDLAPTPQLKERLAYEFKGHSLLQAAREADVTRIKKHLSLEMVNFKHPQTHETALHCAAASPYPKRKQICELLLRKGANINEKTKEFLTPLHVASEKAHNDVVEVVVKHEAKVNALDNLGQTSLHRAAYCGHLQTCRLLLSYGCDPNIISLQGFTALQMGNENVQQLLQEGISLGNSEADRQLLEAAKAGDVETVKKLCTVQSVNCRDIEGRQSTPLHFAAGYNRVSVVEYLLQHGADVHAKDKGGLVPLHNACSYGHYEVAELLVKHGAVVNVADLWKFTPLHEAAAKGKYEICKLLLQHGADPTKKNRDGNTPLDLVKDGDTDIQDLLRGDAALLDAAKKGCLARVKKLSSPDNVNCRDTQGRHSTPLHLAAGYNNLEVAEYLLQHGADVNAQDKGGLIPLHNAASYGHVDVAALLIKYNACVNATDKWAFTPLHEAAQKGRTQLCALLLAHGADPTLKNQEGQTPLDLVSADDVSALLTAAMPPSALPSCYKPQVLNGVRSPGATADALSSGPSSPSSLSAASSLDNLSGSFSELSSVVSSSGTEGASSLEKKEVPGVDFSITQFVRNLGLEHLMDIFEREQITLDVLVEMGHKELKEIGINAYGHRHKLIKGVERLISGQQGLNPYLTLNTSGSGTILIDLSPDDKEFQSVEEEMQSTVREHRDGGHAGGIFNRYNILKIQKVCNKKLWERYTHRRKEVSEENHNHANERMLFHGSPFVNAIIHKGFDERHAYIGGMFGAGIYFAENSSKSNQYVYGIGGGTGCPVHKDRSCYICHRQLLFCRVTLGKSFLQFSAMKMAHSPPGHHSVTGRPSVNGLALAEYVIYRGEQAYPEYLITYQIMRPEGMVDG", "assay": "Enzymatic inhibition on the PARP family members (ELISA), TNKS2", "format": "biochemical", "conditions": "PARP family panel, 30° C."}, "[2]": {"assay": "Preliminary pharmacokinetic experiment in rats by gavage", "format": "in vivo, SD rats", "conditions": "10 mg/kg by gavage", "protocol": "Healthy SD rats (supplied by Shanghai Sippr-BK Lab. Animal Co. Ltd, the Production License Number for the experimental animals: SCXK (hu), 200-220 g of weight, male) were divided into groups randomly and administrated by gavage, respectively. The compound was dissolved in normal saline.\nThe rats fasted for 12 h and could drink water ad libitum before experiment. 2 h after dosing, the rats were provided with food all together.\nThe time point for collecting blood samples and the sample processing are listed as follows.\nIntragastric administration: 0.25, 0.5, 1.0, 2.0, 3.0, 5.0, 7.0, 9.0 and 24 h after administration: 0.3 mL venous blood was taken from retrobulbar venous plexus of the rat and loaded into heparinization tubes. After being centrifuged at 11000 rpm for 5 min, the plasma was separated and frozen at −20° C. in a refrigerator."}, "PARP1": {"molecular_target": "PARP1 (Homo sapiens, UniProt P09874)", "sequence (P09874 whole entry)": "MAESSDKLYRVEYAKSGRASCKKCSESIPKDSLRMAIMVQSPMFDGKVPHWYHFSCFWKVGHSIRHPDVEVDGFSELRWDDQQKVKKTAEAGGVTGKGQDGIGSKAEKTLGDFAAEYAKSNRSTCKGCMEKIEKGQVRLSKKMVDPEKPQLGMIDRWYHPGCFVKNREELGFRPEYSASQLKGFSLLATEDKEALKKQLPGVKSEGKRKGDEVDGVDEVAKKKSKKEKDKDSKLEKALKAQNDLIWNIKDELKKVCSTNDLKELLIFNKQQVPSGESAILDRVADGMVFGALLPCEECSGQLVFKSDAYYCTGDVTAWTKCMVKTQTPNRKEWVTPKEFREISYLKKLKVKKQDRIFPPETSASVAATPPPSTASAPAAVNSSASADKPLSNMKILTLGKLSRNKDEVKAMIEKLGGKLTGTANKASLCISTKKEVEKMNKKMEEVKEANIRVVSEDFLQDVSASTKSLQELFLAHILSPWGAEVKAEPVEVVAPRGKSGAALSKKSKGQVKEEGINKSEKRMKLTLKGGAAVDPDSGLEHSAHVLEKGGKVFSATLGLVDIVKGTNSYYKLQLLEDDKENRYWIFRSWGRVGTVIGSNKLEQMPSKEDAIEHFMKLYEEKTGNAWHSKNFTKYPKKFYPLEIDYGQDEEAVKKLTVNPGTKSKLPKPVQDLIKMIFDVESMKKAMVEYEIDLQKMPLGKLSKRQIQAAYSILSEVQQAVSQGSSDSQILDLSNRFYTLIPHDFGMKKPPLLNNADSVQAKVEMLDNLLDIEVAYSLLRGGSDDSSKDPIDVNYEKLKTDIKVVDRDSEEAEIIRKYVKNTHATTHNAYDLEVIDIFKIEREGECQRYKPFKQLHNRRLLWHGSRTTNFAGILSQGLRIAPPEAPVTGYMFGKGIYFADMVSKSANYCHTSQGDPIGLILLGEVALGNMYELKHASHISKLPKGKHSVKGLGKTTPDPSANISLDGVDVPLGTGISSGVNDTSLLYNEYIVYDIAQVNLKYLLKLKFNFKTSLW", "assay": "PARP1 enzymatic inhibition at molecular levels (ELISA)", "conditions": "ELISA IC50, PARP1 enzyme, molecular level"}},
  "note": "“And” between values parts separate entries of the source, which are not always exact repeats. Equal values may be shown once. Read-outs that look alike come from different tables or passages of the source.",
  "data": [
    {"smiles": "CNCc1ccc(-c2cc3cc(F)cc(C(N)=O)c3o2)cc1", "note": "[compound 5b, 5-fluoro-2-{4-[(methylamino)methyl]phenyl}benzofuran-7-carboxamide]", "values": [
      {"measurement": "IC50", "setting": "[1]", "result": "590 ± 150", "unit": "nM"},
      {"measurement": "IC50", "setting": "PARP2", "result": 1.9, "unit": "nM"},
      {"measurement": "IC50", "setting": "TNKS2", "result": 1300, "unit": "nM"},
      {"measurement": "eliminate rate in vivo", "setting": "[2]", "result": "moderate"},
      {"measurement": "AUC0-t", "setting": "[2]; 10 mg/kg", "result": "394 ng·h/mL and 587 ng·h/mL and 352 ng·h/mL and 474 ng·h/mL"},
      {"measurement": "AUC0-∞", "setting": "[2]; 10 mg/kg", "result": "595 ng·h/mL and 407 ng·h/mL and 478 ng·h/mL"},
      {"measurement": "MRT", "setting": "[2]; 10 mg/kg", "result": "3.82 h and 3.34 h and 5.57 h and 3.04 h"},
      {"measurement": "AUC0-∞", "setting": "[2]; 10 mg/kg, mean", "result": 471, "unit": "ng·h/mL"},
      {"measurement": "bioavailability", "setting": "[2]; male, Sprague-Dawley (SD), rat, plasma, po, read-out: F (absolute bioavailability)", "result": 58.9, "unit": "%"},
      {"measurement": "AUC(0-inf)", "setting": "[2]; male, Sprague-Dawley (SD), rat, plasma, po, 10 mg/kg", "result": 404, "unit": "ng·h/mL"},
      {"measurement": "AUC0-t", "setting": "[2]; male, Sprague-Dawley (SD), rat, plasma, po, 10 mg/kg, read-out: AUC0-t", "result": "452 ± 103", "unit": "ng·h/mL"},
      {"measurement": "MRT", "setting": "[2]; male, Sprague-Dawley (SD), rat, plasma, po, 10 mg/kg, read-out: MRT", "result": "3.94 ± 1.13", "unit": "h"},
      {"measurement": "IC50", "setting": "PARP1", "result": "44.8 ± 12.5", "unit": "nM"}
    ]}
  ]
}
